Where two headings read alike, the source gives them in different places.
What was measured:
HEK 293 cells = assay: Preservation of HEK 293 kidney cells at low temperatures (Trypan blue cell count); type: cell-based
Experimental: The cells were then diluted to 75,000 cells/mL. Subsequently they were distributed over 6 plates with six 3 mL-wells per plate. This concentration is a good compromise between a concentration sufficiently low to prevent cell death by autocytotoxicity and sufficiently high to permit cell sampling and counting without any pre-concentration likely to reduce their survival. Each plate had two control wells not containing product 15, two wells with concentrations of product 15 adjusted to 0.01 mg/mL, and two others with 0.1 mg/mL. Each plate was then incubated at the following temperatures: 4° C., 2° C., 0° C., −2° C., −4° C., and −20° C. Each well was subsequently sampled at the following incubation times: 2, 8, and 22 hours.

erythrocytes = assay: Preservation of erythrocytes: haemolysis at different temperatures; type: cell-based, human
Experimental: The death of erythrocytes can be ascertained by rupture of the plasma membrane. This phenomenon is called haemolysis. Detection of haemolysis is the chief tool used in this experiment to determine the effect of product 15 at different temperatures on the preservation of erythrocytes. Blood sampling→Aliquots→Addition of AAGP (compound 15)→Various temperatures→Observation of haemolysis Product 15 was tested at concentrations of 0 mg/mL, 0.1 mg/mL, 1.0 mg/mL at temperatures of 3, 0, −3, −5, −10, −15, −23, −78° C. From a sample of human blood in a borosilicate heparinized tube, microtubes of 275 μL were filled to full capacity. One third of the microtubes were completed with 2.75 μL of product 15 (10 mg/mL in H2O), and one third of the microtubes were completed with 27.5 μL of product 15 (10 mg/mL in H2O). The blood was divided among the tubes to full capacity to prevent air contact as much as possible. […] The microtubes were frozen on a microtube support and the experiment was conducted using a slow-freeze apparatus at −78° C., whilst thawing was always conducted at room temperature on the microtube rack. After thawing, the microtubes were delicately homogenized by inverting a few times and a sample of erythrocytes was taken. […] Co is the initial Ery count • Cexp is the experimental Ery count Materials

blood platelets = assay: Preservation of blood platelets: platelet clustering over 21 days; type: cell-based
Experimental: The purpose is to test product 15 on the preservation of blood platelets to improve current protocols which only allow their preservation for 5 days. The test was conducted at four different temperatures 22° C., 15° C., 4° C. and finally 0° C. Platelet follow-up lasted 21 days to examine platelet clustering. Clustering is one of the first and most definitive indicators of platelet degradation. During their degradation, the platelets become active, lose their morphology, become fibrous, form clusters and finally degenerate. A platelet count is made but the result is rather more based on the extent of clustering.

H9c2(2-1) cells [1] = type: cell-based, rat
Experimental: The test was conducted on rat heart myoblasts to consider application of these compounds for the preservation of organs such as the heart for subsequent transplant.
Another test was conducted on myoblasts at temperatures of 3° C. and −3° C. The purpose of the experiment this time was to increase the concentrations of glycoproteins 15 and 30 equimolar fashion (the molecular weight of the dimer being 2× greater than that of the monomer). The increase in concentration was 2.5 mg/mL for monomer 15 and 5 mg/mL for dimer 30. The temperatures were chosen over a range frequently used for the preservation of cells and tissues. The idea being subsequently to continue this experiment directly on tissues.

[2] = test system: CCD-27Sk fetal fibroblast skin cells
From the text: […] Materials

[3] = test system: adult primary skin fibroblasts; assay: Protection of adult primary skin fibroblasts in culture medium; type: cell-based; conditions: 15 mg/mL, after six days, culture media
Experimental: This test was extended to adult primary fibroblasts.
For adult fibroblasts, a culture medium (rich in factors) is used,
The concentration of product 15 is 15 mg/mL.

embryonic fibroblasts = conditions: 15 mg/mL; 1 mM H2O2; 37° C.; after 10 hours; serum-free medium with 0.5 mM EDTA
H9c2(2-1) cells [4] = type: cell-based, rat; remark: listed apart in the source
[5] = 0.1 mg/mL, 40 min, −78° C. with slow cooling
[6] = 0.1 mg/mL, 2 h, 3, 0, −3, −5 and −10° C.
[7] = 0.1 mg/mL, 4 h, 3, 0, −3, −5 and −10° C.
[8] = 0.1 mg/mL, 9 h, 3, 0, −3, −5 and −10° C.
[9] = 0.1 mg/mL, 24 h, 3, 0, −3, −5 and −10° C.
[10] = 1.0 mg/mL, 40 min, −78° C. with slow cooling
[11] = 1.0 mg/mL, 2 h, 3, 0, −3, −5 and −10° C.
[12] = 1.0 mg/mL, 4 h, 3, 0, −3, −5 and −10° C.
[13] = 1.0 mg/mL, 9 h, 3, 0, −3, −5 and −10° C.
[14] = 1.0 mg/mL, 24 h, 3, 0, −3, −5 and −10° C.

For `C[C@H](NC(=O)[C@H](C)NC(=O)[C@@H](N)CCCCNC(=O)C(F)(F)C1(O)O[C@H](CO)[C@H](O)[C@H](O)[C@H]1O)C(=O)O` (stereo partly drawn) [product 15], the “cell survival compared with negative control” value (HEK 293 cells; 0.01 mg/mL) was “does not appear to improve cell survival”, the “cell survival rate compared with negative control” value (HEK 293 cells; 0.10 mg/mL, five of six temperatures (4, 2, 0, −2, −4, −20° C.), 2, 8, 22 h) was “led to the best cell survival rates even if the improvement remained low” and the “cell appearance and Trypan blue uptake after thawing” value (HEK 293 cells; −20° C., after two hours) was “maintained the appearance of spherical retractile cells and did not absorb Trypan blue”. For the same compound, the “cells remaining after re-incubation” value (HEK 293 cells; −20° C., eight hours' incubation, both concentrations (0.01 and 0.1 mg/mL)) was “complete disappearance of all cells”, the “% Haemolysis” value (erythrocytes; [5]) was 36% and the “% erythrocytes” value (erythrocytes; [5]) was 64%. For the same compound, the “% Ery” value (erythrocytes; [6]) was 100%, the “% Haemolysis” value (erythrocytes; [6]) was 0% and the “% Ery” value (erythrocytes; 0.1 mg/mL, 2 h, −15° C.) was 73%. The “% Haemolysis” value (erythrocytes; 0.1 mg/mL, 2 h, −15° C.) was 27%, the Number of erythrocytes (erythrocytes; 0.1 mg/mL, 2 h, −15° C.) was 90 and the “% Ery” value (erythrocytes; [7]) was 100%. The “% Haemolysis” value (erythrocytes; [7]) was 0%, the “% Ery” value (erythrocytes; 0.1 mg/mL, 4 h, −15° C.) was 0% and the “% Haemolysis” value (erythrocytes; 0.1 mg/mL, 4 h, −15° C.) was 100%. For the same compound, the Number of erythrocytes (erythrocytes; 0.1 mg/mL, 4 h, −15° C.) was 0, the “% Ery” value (erythrocytes; [8]) was 100% and the “% Haemolysis” value (erythrocytes; [8]) was 0%. For the same compound, the “% Ery” value (erythrocytes; 0.1 mg/mL, 9 h, −15° C.) was 0%, the “% Haemolysis” value (erythrocytes; 0.1 mg/mL, 9 h, −15° C.) was 100% and the Number of erythrocytes (erythrocytes; 0.1 mg/mL, 9 h, −15° C.) was 0. The “% Ery” value (erythrocytes; [9]) was 100%, the “% Haemolysis” value (erythrocytes; [9]) was 0% and the “% Haemolysis” value (erythrocytes; [10]) was 97%. For the same compound, the “% erythrocytes” value (erythrocytes; [10]) was 3%, the “% Ery” value (erythrocytes; [11]) was 100% and the “% Haemolysis” value (erythrocytes; [11]) was 0%. The “% Ery” value (erythrocytes; 1.0 mg/mL, 2 h, −15° C.) was 98%, the “% Haemolysis” value (erythrocytes; 1.0 mg/mL, 2 h, −15° C.) was 2% and the Number of erythrocytes (erythrocytes; 1.0 mg/mL, 2 h, −15° C.) was 120. For the same compound, the “% Ery” value (erythrocytes; [12]) was 100%, the “% Haemolysis” value (erythrocytes; [12]) was 0% and the “% Ery” value (erythrocytes; 1.0 mg/mL, 4 h, −15° C.) was 100%. The “% Haemolysis” value (erythrocytes; 1.0 mg/mL, 4 h, −15° C.) was 0%, the Number of erythrocytes (erythrocytes; 1.0 mg/mL, 4 h, −15° C.) was 133 and the “% Ery” value (erythrocytes; [13]) was 100%. For the same compound, the “% Haemolysis” value (erythrocytes; [13]) was 0%, the “% Ery” value (erythrocytes; 1.0 mg/mL, 9 h, −15° C.) was 98% and the “% Haemolysis” value (erythrocytes; 1.0 mg/mL, 9 h, −15° C.) was 2%. The Number of erythrocytes (erythrocytes; 1.0 mg/mL, 9 h, −15° C.) was 121, the “% Ery” value (erythrocytes; [14]) was 100% and the “% Haemolysis” value (erythrocytes; [14]) was 0%. For the same compound, the protection of erythrocytes (erythrocytes; temperature below −15° C., 1.0 mg/mL) was “no protection is observed”, the haemolysis (erythrocytes; temperature range of 2 to −10° C., 0 to 24 hours, with or without product) was “no haemolysis” and the protection of erythrocytes (erythrocytes; −15° C.) was “really protects the erythrocytes”. The protection of erythrocytes (erythrocytes; −15° C., 4 and 9 hours, 1.0 mg/mL) was “complete protection”, the protection of erythrocytes (erythrocytes; −15° C., after two hours, 0.1 mg/mL) was “partly protects the erythrocytes” and the protection of erythrocytes (erythrocytes; −15° C., after two hours, 1.0 mg/mL) was “completely”. The “relation of % haemolysis to concentration” value (erythrocytes; −78° C. slow cooling, freezing point, after 40 minutes) was “direct correlation is observed between % haemolysis and concentrations of product 15”, the platelet clustering (blood platelets; 0° C., with or without glycoprotein) was “no clustering is seen” and the platelet clustering (blood platelets; 4° C., irrespective of concentrations) was “almost no clustering is observed”. For the same compound, the “platelet clustering compared with control” value (blood platelets; 15° C., over time) was “a greater increase in clustering is observed in the control than in the samples containing the compound”, the “time up to which samples do not show any platelet clusters” value (blood platelets; 22° C., 1 mg/mL and 4 mg/mL) was “up to 7 days” and the platelet clustering (blood platelets; 22° C., 4 mg/mL (most concentrated samples)) was “the least clustering”. For the same compound, the “platelet clustering compared with control” value (blood platelets; 22° C., 13, 17 and 21 days) was “true inhibition of platelet clustering”, the “survival rate relative to control (control 19%)” value (H9c2(2-1) cells [1]; 3° C. (FIG. 42 as printed), after 8 hours, monomer […], dimer 5 mg/mL) was “more than twice as high” and the cells preserved (H9c2(2-1) cells [1]; after 16 hours, FIGS. 41 and 42, monomer […], dimer 5 mg/mL) was “approximately 90%”. The myoblasts still living (H9c2(2-1) cells [1]; after 24 hours, FIGS. 41 and 42, monomer […], dimer 5 mg/mL) was roughly 65%, the efficacy versus concentration (H9c2(2-1) cells [1]; −3° C. (FIG. 43), 1 mg/mL versus 2.5 / 5 mg/mL) was “greater efficacy at higher concentrations” and the “preservation of skin fibroblasts, overall” value ([2]; 5 mg/mL (8.6 mM), 22, 3, −3, −20° C.) was “better preservation in the presence of product 15 at all temperatures except at −20 °C”. For the same compound, the “survival rates over time compared with control” value ([2]; 5 mg/mL, 22° C., 3° C., −3° C. (FIGS. 48 to 50)) was “much better survival rates”, the “cell preservation with or without product” value ([2]; 5 mg/mL, 8 hours (FIG. 44), entire temperature range) was “no difference is found” and the “cell survival rate compared with control” value ([2]; 5 mg/mL, 20 hours (FIG. 46)) was “better cell survival rate with monomer 15 than with the control”. For the same compound, the survival rate ([2]; 5 mg/mL, 20 hours (FIG. 46), −3° C.) was 50%, the “cell preservation compared with control” value ([2]; 5 mg/mL, after 12 hours, 22° C. and −3° C.) was “better preservation” and the “cell survival compared with control” value ([2]; 5 mg/mL, after 30 hours (FIG. 47), especially at 3° C.) was “distinct improvement”. The survival ([2]; 5 mg/mL, after 30 hours (FIG. 47), −3° C.) was 70%, the “cell fate on freezing” value ([2]; 5 mg/mL, −20° C.) was “death of the cells after thawing” and the survival ([2]; 10 mg/mL, 15° C., after four days, low-serum media) was 46%. For the same compound, the cells preserved ([2]; 10 mg/mL, 37° C., after four days, low-serum media) was “approximately 100%”, the cell morphology ([2]; 10 mg/mL, Day 1 (FIG. 55)) was “preserve a spherical shape and maintain their integrity” and the “cell survival rate versus concentration” value ([2]; 3 and −3° C., 20 and 34 hours, up to 15 mg/mL) was “improves cell survival rate”. The “protective effect on cells” value ([2]; 3 and −3° C., concentrations up to 15 mg/mL, after 34 hours) was roughly 100%, the survival ([3]; 3° C.) was 100% and the cells protected ([3]; 15° C.) was 100%. The survival (embryonic fibroblasts) was “approximately 80%”, the “number of living cells over incubation time” value (H9c2(2-1) cells [4]; 1 mg/mL, −3° C. (FIG. 40)) was “slow decrease over incubation time in the number of living cells” and the “dependence of cell survival rate on concentration” value (H9c2(2-1) cells [4]; 0.1, 0.5 and 1 mg/mL) was “better results at 1 mg/mL than at 0.1 and 0.5 mg/mL”. For the same compound, the “survival percentage over time” value (H9c2(2-1) cells [4]; main experiment, 1 mg/mL, 4° C., up to 45 hours) was “better survival percentage over the entire duration of the experiment”, the survival (H9c2(2-1) cells [4]; main experiment, 1 mg/mL, 22° C., after 45 hours) was 65% and the “protective effect, monomer versus dimer” value (H9c2(2-1) cells [4]; main experiment, 1 mg/mL, after 16 hours, 4° C.) was “gives the best results”. For the same compound, the “cell survival compared with control” value (H9c2(2-1) cells [4]; main experiment, 1 mg/mL, up to 8 hours, 22, 4, −3 and −10° C.) was “no significant difference”, the “survival compared with control” value (H9c2(2-1) cells [4]; main experiment, 1 mg/mL, −10° C.) was “slight improvement” and the survival percentage (H9c2(2-1) cells [4]; preliminary experiment, 2° C. as printed (method −2° C.), 20 hours, 0.1 mg/mL) was “identical to the control”.

From patent US8394362B2, “Gem difluorinated C-glycopeptides, their preparation and their use for the preservation of biological materials and/or in cryosugery” (priority 2004, dated 2013)
